According to paper PMC7822874, “Chemoprotective antimalarials identified through quantitative high-throughput screening of Plasmodium blood and liver stage parasites” (Scientific Reports, 2021):
Read-outs that look alike come from different tables or passages of the source.

Tests used:
[1] = tested on: P. berghei-ANKA-GFP-LucCON liver stage parasites in HepG2-A16-CD81EGFP cells; experiment: P. berghei liver stage Pb-Luc assay, Method 1 (UCSD, 1536-well); format: cell-based, Plasmodium berghei; details: for activity at 1 µM / activity at 3 µM / AC50: Plasmodium berghei; for activity at 1 µM / activity at 3 µM: 48 h; for activity at 1 µM / activity at 3 µM / PbLuc 1uM growth rep1 / PbLuc 1uM growth rep2 / PbLuc 3uM growth rep1 / PbLuc 3uM growth rep2: average of 2 wells on a 1536 well plate; for Max Resp (signal direction of the dose response) / AC50: Method 1; for Max Resp (signal direction of the dose response): Decrease = decreasing P. berghei viability with dose, Increase = increasing signal, Inactive = no dose response
[2] = tested on: HepG2-A16-CD81EGFP cells; details: average of 2 wells; for HepG2 1uM growth rep1 / HepG2 1uM growth rep2: HepG2, 1 µM compound treatment (10 mM stocks); for HepG2 1uM growth rep1 / HepG2 3uM growth rep1: replicate 1, normalized; for HepG2 1uM growth rep2 / HepG2 3uM growth rep2: replicate 2, normalized; for HepG2 3uM growth rep1 / HepG2 3uM growth rep2: HepG2, 3 µM compound treatment (10 mM stocks)
[3] = tested on: Plasmodium falciparum Dd2 asexual blood stage parasites; experiment: microbe, parasite or virus in culture; set-up: species or system Plasmodium falciparum Dd2 in human erythrocytes; single determination (one 11-point concentration-response curve); details: Plasmodium falciparum, DD2, Erythrocyte, 72 h; read-out: AC50
[4] = in vitro; details: human, HepG2-A16-CD81EGFP cells, uninfected
[5] = P. berghei liver stage, 1 µM compound treatment (10 mM stocks), replicate 1, normalized, read-out: PbLuc 1uM growth rep1
[6] = P. berghei liver stage, 1 µM compound treatment (10 mM stocks), replicate 2, normalized, read-out: PbLuc 1uM growth rep2
[7] = P. berghei liver stage, 3 µM compound treatment (10 mM stocks), replicate 1, normalized, read-out: PbLuc 3uM growth rep1
[8] = P. berghei liver stage, 3 µM compound treatment (10 mM stocks), replicate 2, normalized, read-out: PbLuc 3uM growth rep2
[9] = P. berghei liver stage, 1 µM compound treatment (10 mM stocks), replicate 1, normalized
[10] = P. berghei liver stage, 1 µM compound treatment (10 mM stocks), replicate 2, normalized
[11] = P. berghei liver stage, 3 µM compound treatment (10 mM stocks), replicate 1, normalized
[12] = P. berghei liver stage, 3 µM compound treatment (10 mM stocks), replicate 2, normalized
[13] = 1 uM (compounds provided at 10 mM), column 11, read-out: Pb-Luc (P. berghei liver stage), % of control, lower concentration, first repeat
[14] = 1 uM (compounds provided at 10 mM), column 12, read-out: Pb-Luc (P. berghei liver stage), % of control, lower concentration, second repeat
[15] = 3 uM (compounds provided at 10 mM), column 8, read-out: Pb-Luc (P. berghei liver stage), % of control, higher concentration, first repeat
[16] = 3 uM (compounds provided at 10 mM), column 9, read-out: Pb-Luc (P. berghei liver stage), % of control, higher concentration, second repeat
[17] = Hill fit, 50% of maximum activity response, read-out: AC50
[18] = log10 of molar AC50 from Hill fit, read-out: Log AC50 (converted)

Structure (SMILES) | activity at 1 µM [1, 13] | activity at 1 µM [1, 14] | activity at 3 µM [1, 15] | activity at 3 µM [1, 16] | AC50 [3] | viability at 48 h, 1 µM [4] | viability at 48 h, 3 µM [4] | other results
Cc1ccc(Nc2cc(C)nc(NCc3ccccc3)n2)cc1 [MLS000574704-01] | – | – | – | – | – | – | – | activity at 1 µM [1, 5]: 61%; activity at 1 µM [1, 6]: 54%; activity at 3 µM [1, 7]: 31%; activity at 3 µM [1, 8]: 43%; HepG2 1uM growth rep1 [2]: 83%; HepG2 1uM growth rep2 [2]: 84%; HepG2 3uM growth rep1 [2]: 81%; HepG2 3uM growth rep2 [2]: 80%
Cc1ccc(NC2=C/C(=N/S(=O)(=O)c3cccs3)c3ccccc3C2=O)cc1C [MLS000585841-01] | – | – | – | – | – | – | – | PbLuc 1uM growth rep1 [1, 9]: 82%; PbLuc 1uM growth rep2 [1, 10]: 86%; PbLuc 3uM growth rep1 [1, 11]: 57%; PbLuc 3uM growth rep2 [1, 12]: 72%; HepG2 1uM growth rep1 [2]: 102%; HepG2 1uM growth rep2 [2]: 96%; HepG2 3uM growth rep1 [2]: 77%; HepG2 3uM growth rep2 [2]: 86%
Cc1ccc(Nc2cc(C)c3ccc(O)cc3n2)cc1C.Cl [MLS000674791-01] | – | – | – | – | – | – | – | PbLuc 1uM growth rep1 [1, 9]: 115%; PbLuc 1uM growth rep2 [1, 10]: 107%; PbLuc 3uM growth rep1 [1, 11]: 69%; PbLuc 3uM growth rep2 [1, 12]: 101%; HepG2 1uM growth rep1 [2]: 98%; HepG2 1uM growth rep2 [2]: 92%; HepG2 3uM growth rep1 [2]: 89%; HepG2 3uM growth rep2 [2]: 95%
Oc1ccccc1Nc1nc(NCc2ccccc2)c2ccccc2n1 [MLS000693415-01] | – | – | – | – | – | – | – | activity at 1 µM [1, 5]: 72%; activity at 1 µM [1, 6]: 80%; activity at 3 µM [1, 7]: 65%; activity at 3 µM [1, 8]: 75%; HepG2 1uM growth rep1 [2]: 89%; HepG2 1uM growth rep2 [2]: 90%; HepG2 3uM growth rep1 [2]: 92%; HepG2 3uM growth rep2 [2]: 90%
Cc1ccc(C)c(NC(=O)CN(C)C(=O)c2ccc(-c3ccc(Cl)cc3)o2)c1 [MLS001077062-01] | 137% | 128% | 154% | 145% | 4.73 µM | 98% | 102% | –
COc1cc2ccccc2cc1C(=O)N1CC(C)CC(C)C1 (stereo not shown) [MLS001129394-01] | 125% | 114% | 67% | 101% | 2.37 µM | 108% | 98% | –
CN(CC(=O)Nc1cccc(F)c1)C(=O)c1ccc(-c2cccc(C(F)(F)F)c2)o1 [MLS001139679-01] | 156% | 127% | 81% | 96% | 0.668 µM | 103% | 99% | –
COc1cccc(NC(=O)CN(C)C(=O)c2ccc(-c3ccc(Cl)cc3)o2)c1 [MLS001142098-01] | 146% | 155% | 150% | 187% | 4.22 µM | 100% | 100% | –
CCCCCCCNC(=O)C1(CC2CC(c3ccc(Cl)cc3)=NO2)CCN(C(=O)c2cc(OCC)c(OCC)c(OCC)c2)CC1 (stereo not shown) [MLS001143958-01] | – | – | – | – | 3.35 µM | 103% | – | Max Resp (signal direction of the dose response) [1]: Decrease; AC50 [1, 17]: 2.82 µM; AC50 [1, 18]: 2.82 µM; viability at 48 h [4]: 103%
CCCc1cc(=O)oc2cc(C)cc(OCC(=O)Nc3ccccn3)c12 [MLS001160382-01] | 212% | 140% | 42% | 160% | 2.11 µM | 97% | 111% | –
Cc1ccc(C)c(NC(=O)CN(C)C(=O)c2ccc(-c3cccc(C(F)(F)F)c3)o2)c1 [MLS001161354-01] | 171% | 168% | 154% | 126% | 2.11 µM | 98% | 102% | –
CCOc1ccc(NC(=O)CN2C(=O)NC(C)(c3ccc(OC(F)F)cc3)C2=O)cc1 (stereo not shown) [MLS001193353-01] | 120% | 108% | 48% | 87% | 9.44 µM | 109% | 103% | –
CC1CCCN(Cc2c(O)ccc3c(=O)c(-c4ccc(Cl)cc4)coc23)C1 (stereo not shown) [MLS001196099-01] | 102% | 123% | 105% | 96% | 1.88 µM | 113% | 99% | –
Cn1c(S)nc2sc3c(c2c1=O)CCC(C(C)(C)C)C3 (stereo not shown) [MLS001198408-01] | 80% | 94% | 69% | 61% | 5.31 µM | 97% | 107% | –
COc1cc2nc(Nc3ccc(C)c(Cl)c3)nc(N)c2cc1OC [MLS001199666-01] | 99% | 121% | 97% | 111% | 2.11 µM | 109% | 100% | –
CCn1cc(C(=O)N[C@@H](CCSC)C(=O)NC(C)(C)CO)c(=O)c2cc3c(cc21)OCO3 [MLS001201727-01] | – | – | – | – | 2.99 µM | 103% | – | Max Resp (signal direction of the dose response) [1]: Inactive; viability at 48 h [4]: 103%
C=C(C)COc1ccc(-c2ncnc(C(F)(F)F)c2-c2ccc(OC)cc2)c(O)c1 [MLS001216205-01] | 120% | 94% | 111% | 99% | 2.99 µM | 89% | 104% | –
Cc1ccc(/C=N/NC(=O)c2cc3ccccc3cc2O)o1 [MLS001219838-01] | – | – | – | – | 5.31 µM | 97.9% | – | Max Resp (signal direction of the dose response) [1]: Decrease; AC50 [1, 17]: 1.41 µM; AC50 [1, 18]: 1.41 µM; viability at 48 h [4]: 97.9%
COc1ccc(S(=O)(=O)N2CCC3(CC2)OCCN3S(=O)(=O)c2c(C)cc(C)cc2C)cc1 [MLS001237293-01] | 88% | 81% | 87% | 75% | 2.66 µM | 108% | 103% | –
CCCSc1ccc([C@H]2N[C@@](Cc3ccccc3)(C(=O)OC)[C@H]3C(=O)N(CC)C(=O)[C@@H]23)cc1 [MLS001362807-01] | 115% | 102% | 124% | 103% | 5.31 µM | 109% | 103% | –
CC(C)(C)OC(=O)N1CCC(CC2CC(c3ccccc3)=NO2)(C(=O)NCc2ccccc2)CC1 (stereo not shown) [MLS002174287-01] | 140% | 108% | 65% | 115% | 2.66 µM | 111% | 95% | –
COc1ccc(NC(=O)CN(C)C(=O)c2oc3c(ccc4ccccc43)c2C)cc1 [MLS002182882-01] | 160% | 170% | 88% | 114% | 0.531 µM | 110% | 104% | –
COc1cc(C#Cc2c(-c3cncn3C)n(C)c3ccc(-c4ccc5[nH]ccc5c4)cc23)cc(OC)c1 [MLS002391601-01] | 112% | 94% | 111% | 101% | 2.37 µM | 105% | 102% | –
